The values below are quoted from earlier work in patent US20110052727A1, “Anti Influenza Nutritional Supplements” (priority 2009, published 2011).

The series deals with lung-adapted PR-8 virus. The note with it: mouse, in vivo.

`O=C/C=C/c1ccccc1` [CA, trans-cinnamaldehyde]: the “virus yield reduction in bronchoalveolar lavage fluid” value is 1 log.
